Assay results as given in patent US20180155757A1, “IDENTIFICATION OF BACTERIA THAT ARE RESISTANT TO CARBAPENEMS BY MEMBRANE IMPERVIOUSNESS” (BIOMÉRIEUX, priority 2015, published 2018).

Columns and labels:
Type in all cases: cell-based
[1] = system: Enterobacter aerogenes EA 27; test: MIC of PMBN, microdilution in liquid medium
Procedure: (§1) Likewise, prior to carrying out the discriminating method according to the invention, the PMBN-sensitivity of each of the model strains used was evaluated by means of a method of microdilution in liquid medium.
(§2) To do this, each of the strains was cultured in Mueller-Hinton broth (MHII-Becton Dickinson®, United States). On inocula containing 2×10^5 CFU/ml, serial doubling dilutions were carried out for the PMBN in order to determine the minimum inhibitory concentrations. The PMBN-sensitivity was read after 18 hours of incubation at 37° C., by addition of 0.2 mg/ml of iodonitrotetrazolium chloride (Sigma-Aldrich®, United States).

C. freundii 0403012 = test: MIC of PMBN
Procedure: as §1, §2

C. freundii 1204047 = test: MIC of PMBN
Procedure: as §1, §2

E. aerogenes 1204048 = test: MIC of PMBN
Procedure: as §1, §2

E. aerogenes 9203076 = test: MIC of PMBN
Procedure: as §1, §2

E. aerogenes 9306071 = test: MIC of PMBN
Procedure: as §1, §2

[2] = system: E. cloacae 0901026 (KPC-2 producer); test: MIC of PMBN
Procedure: as §1, §2

[3] = system: E. cloacae 1008073 (VIM-1 producer); test: MIC of PMBN
Procedure: as §1, §2

[4] = system: E. cloacae 1008079 (IMP-1 producer); test: MIC of PMBN
Procedure: as §1, §2

[5] = system: E. cloacae 1008096 (VIM-1 producer); test: MIC of PMBN
Procedure: as §1, §2

[6] = system: E. cloacae 1101172 (NDM producer); test: MIC of PMBN
Procedure: as §1, §2

E. cloacae 9304026 = test: MIC of PMBN
Procedure: as §1, §2

E. cloacae 9402034 = test: MIC of PMBN
Procedure: as §1, §2

[7] = system: E. coli 0506040 (VIM-1 producer); test: MIC of PMBN
Procedure: as §1, §2

[8] = system: E. coli 1008077 (VIM-1 producer); test: MIC of PMBN
Procedure: as §1, §2

[9] = system: E. coli 1012292 (KPC-2 producer); test: MIC of PMBN
Procedure: as §1, §2

E. coli 1204043 = test: MIC of PMBN
Procedure: as §1, §2

[10] = system: K. pneumoniae 0404024 (VIM-1 producer); test: MIC of PMBN
Procedure: as §1, §2

[11] = system: K. pneumoniae 0901027 (KPC-3 producer); test: MIC of PMBN
Procedure: as §1, §2

K. pneumoniae 1002015 = test: MIC of PMBN
Procedure: as §1, §2

[12] = system: K. pneumoniae 1012335 (OXA-48 producer); test: MIC of PMBN
Procedure: as §1, §2

[13] = system: K. pneumoniae 1104053 (OXA-48 producer); test: MIC of PMBN
Procedure: as §1, §2

[14] = system: K. pneumoniae 1108001 (KPC-2 producer); test: MIC of PMBN
Procedure: as §1, §2

[15] = system: K. pneumoniae 1108002 (KPC-3 producer); test: MIC of PMBN
Procedure: as §1, §2

[16] = system: K. pneumoniae 1108007 (VIM-1 producer); test: MIC of PMBN
Procedure: as §1, §2

K. pneumoniae 1204034 = test: MIC of PMBN
Procedure: as §1, §2

[17] = system: S. marcescens 1008175 (IMP-1 producer); test: MIC of PMBN
Procedure: as §1, §2

Measured: MICPMBN

polymyxin B nonapeptide [PMBN]
MICPMBN = 256 μg/ml: C. freundii 0403012
MICPMBN >1024 μg/ml: E. aerogenes 1204048 | [4] | E. cloacae 9304026 | E. cloacae 9402034 | [10] | [11] | [15]
MICPMBN = 128 μg/ml: [7]
MICPMBN = 256 ng/ml: K. pneumoniae 1204034
MICPMBN = 512 μg/ml: E. coli 1204043
MICPMBN = 1024 μg/ml: all other assays above
